Results on eight compounds are retold here after patent US12410124B2 (priority 2019, dated 2025).

Format in all cases: in vivo
In assay [1] the test system is substantia nigra p-α-s. Put plainly: Substantia nigra p-α-s protein expression in MPTP Parkinson's disease model mouse (immunofluorescence). To be noted: percentage of mean intensity of blank control group, gavage 21 days after MPTP modeling. How it is done:
(§1) Neurotoxins can be used to establish PD animal models. Currently, 1-methyl-4-phenyl-1,2,3,6-tetrahydropyridine (MPTP) is the sole synthetic toxin which is recognized to induce PD symptoms in human and non-human primates and in mice. Using MPTP subacute modeling method, C57BL/6J male mice were intraperitoneally injected with MPTP 30 mg/kg, once a day for 5 consecutive days. The experiment animals were divided into blank control group, MPTP model group, and compound treatment group. For the […] compound treatment group, the compound was administrated by gavage for 21 consecutive days after the completion of modeling; for the MPTP model group, the normal saline was administrated by gavage for 21 consecutive days after the completion of modeling; and for the blank control group, the normal saline was first intraperitoneally injected for 5 days, and then administrated by gavage for 21 days.
Alpha-synuclein is an “unfolded protein” in its natural state. It exists in a monomeric form, and participates in the physiological functions such as the release of neurotransmitters, the establishment of synaptic junctions, and the regulation of synaptic plasticity. Under pathological conditions, more than 90% of alpha-synuclein is phosphorylated at serine of position 129 and converted into phosphorylated alpha-synuclein (p-α-s), thereby forming Lewy bodies. The formation of Lewy bodies is one of the main pathological manifestations and pathological mechanisms for Parkinson's disease, and plays an important role in the formation and development of PD. The detection of the p-α-s expression in the midbrain and substantia nigra of PD model mice can evaluate the neuroprotective activity of the compound.
Half of experiment mice in each group were taken to separate the midbrain after perfusion and fixation. The tissue was trimmed, and the substantia nigra-striatum area was taken to prepare paraffin sections. The p-α-s immunofluorescence staining was performed in the brain sections of mice in each group. […] The experiment included blank control group, MPTP model group, positive control group (caffeic acid phenethyl ester, CAPE), prototype control group (styryl sulfone compounds 3B, 3C, 3D, and 3G, whose structures are shown as above), and target compound group.

Assay [2] concerns substantia nigra GFAP. The assay is described as follows: Number of substantia nigra astrocytes with GFAP positive expression in MPTP Parkinson's disease model mouse (immunohistochemistry). To be noted: substantia nigra, MPTP Parkinson's disease model mouse, immunohistochemistry. How it is done:
as §1
(§2) Neuron-glial cell network homeostasis disorder is an important factor for the selective and progressive death of substantia nigra dopaminergic neurons in PD. In the neurotoxic effect of MPTP, the excessive activations of microglial cells and astrocytes produce a variety of inflammatory cytokines and reactive oxygen species (ROS). These inflammatory factors and ROS amplify their respective toxicities and mediate malignant feedback loop, causing a cascade inflammation response and aggravating the pathological process of PD. CD11b and GFAP are the marker proteins for activations of microglial cells and astrocytes, respectively. Therefore, the effect of the target compounds on the activations of the microglial cells and astrocytes in the substantia nigra, hippocampus, and midbrain areas of MPTP-induced PD mice can be investigated, to explore the mechanism of the anti-PD effect of the target compounds by inhibiting the neuroinflammation.
Half of experiment mice in each group were taken to separate the midbrain after perfusion and fixation. The tissue was trimmed, and the substantia nigra area was taken to prepare paraffin sections. The GFAP immunohistochemical staining was performed for the statistics of the change in the number of astrocytes with GFAP positive expression. The experiment included blank control group, MPTP model group, positive control group (caffeic acid phenethyl ester, CAPE), prototype control group (styryl sulfone compounds 3B, 3C, 3D, and 3G, whose structures are shown as above), and target compound group.

Assay [3] relates to GCLC. The assay is described as follows: Midbrain GCLC expression in MPTP Parkinson's disease model mouse (western blot). To be noted: midbrain, MPTP Parkinson's disease model mouse, western blot. The protocol: as §1
Oxidative stress is an important pathogenic mechanism of PD. Dopaminergic neurons are more sensitive to oxidative stress and are more susceptible to oxidative stress damage. Glutathione (GSH) is an important antioxidant substance in the cell, and glutamate cysteine ligase (GCL) is the rate-limiting enzyme for GSH synthesis, which is composed of catalytic subunit (GCLC) and regulatory subunit (GCLM). The increase of GCLC expression can promote the synthesis of GSH and enhance the ability of tissue cells against oxidative stress. GCL, a phase II enzyme, plays an important protective role by catalyzing the conversion of free radicals into non-toxic products and increasing their water solubility to facilitate the elimination of free radicals, and maintain the redox balance in the body. It plays an important role in the process of protecting cells against oxidative stress damage. The activation of p38 protein phosphorylation has a negative regulatory effect on phase II enzymes. […] Using GCLC as an indicator, the inhibitory effect of the target compounds on MPTP-induced oxidative stress damage in PD mice can be investigated.
GCLC is expressed in astrocytes, microglial cells, and neurons. The total proteins of the midbrain tissue of mice in each experiment group were extracted, to determine the expression of phase II enzyme GCLC in the midbrain of mice by western blot using GAPDH as the internal reference. The experiment included blank control group, MPTP model group, positive control group (caffeic acid phenethyl ester, CAPE), prototype control group (styryl sulfone compounds 3B, 3C, 3D), and 3G, whose structures are shown as above), and target compound group.
For orientation: Immunoblotting shows a protein as a band on a membrane.

Assay [4] concerns midbrain CD11b. Put plainly: Midbrain CD11b protein expression in MPTP Parkinson's disease model mouse (western-blotting). To be noted: midbrain, MPTP Parkinson's disease model mouse, western-blotting. The protocol:
as §1, §2
[…] The experiment included blank control group, MPTP model group, positive control group (caffeic acid phenethyl ester, CAPE), prototype control group (styryl sulfone compounds 3B, 3C, 3D), and 3G, whose structures are shown as above), and target compound group.

For assay [5], the system named is substantia nigra TH. Put plainly: Substantia nigra TH expression in MPTP Parkinson's disease model mouse (immunofluorescence). Particulars: percentage of mean intensity of blank control group, gavage 21 days after MPTP modeling. How it is done:
as §1
(§3) The main cause of PD lies in the pathological changes in the substantia nigra-striatum projection system of the brain and the progressive degeneration and loss of dopaminergic neurons. Tyrosine hydroxylase (TH) is the first enzyme in the biosynthesis of catecholamine neurotransmitters, as well as the first rate-limiting enzyme in the dopamine synthesis. It plays an important role in the synthesis and metabolism of the neurotransmitter DA. The TH in PD animal models and patients has a wide range of abnormal changes, from the gene expression to the enzyme protein content and enzyme activity. The detection of the TH expression in the midbrain and substantia nigra of PD model mice can be used to evaluate the neuroprotective activity of the compound.
Half of experiment mice in each group were taken to separate the midbrain after perfusion and fixation. The tissue was trimmed, and the substantia nigra-striatum area was taken to prepare paraffin sections. The TH immunofluorescence staining was performed in the brain sections of mice in each group. […] The experiment included blank control group, MPTP model group, positive control group (caffeic acid phenethyl ester, CAPE), prototype control group (styryl sulfone compounds 3B, 3C, 3D, and 3G, whose structures are shown as above), and target compound group.

In assay [6] the test system is midbrain TH. The assay is described as follows: Midbrain TH expression in MPTP Parkinson's disease model mouse (western-blotting). Particulars: midbrain total protein, GAPDH internal reference, gavage 21 days after MPTP modeling. How it is done: as §1, §3
Half of experiment mice in each group were taken to extract the total midbrain protein, and the change in the midbrain TH was determined by western-blotting using GAPDH as the internal reference. The experiment included blank control group, MPTP model group, positive control group (caffeic acid phenethyl ester, CAPE), prototype control group (styryl sulfone compounds 3B, 3C, 3D, and 3G, whose structures are shown as above), and target compound group.

As for `C=CCOc1ccc(C/C=C/S(=O)(=O)/C=C/c2ccc(OC(C)=O)c(OC(=O)N(CC=C)CC=C)c2)cc1` [Compound K1-4, 4-{(E)-2-[(E)-3-(4-allyloxyphenyl)prop-1-en-1-yl]sulfonylethenyl}-2-(N,N-diallylcarbamoyloxy)phenyl acetate], the results for the “Expression (Immunofluorescence intensity %)” value in assay [1] and in assay [5] were 106.95 ± 9.27% and 74.20 ± 6.58%, respectively. Also, the “Positive cell number (astrocytes with GFAP positive expression)” value (“Positive cell number” for short) in assay [2] was 112 ± 4. In addition, the “Expression (GCLC/GAPDH)” value in assay [3] is 1.10 ± 0.07. The “Expression (CD11b/GAPDH)” value in assay [4] was determined as 1.09 ± 0.10. The “Expression (TH/GAPDH)” value in assay [6] came to 0.74 ± 0.08.

In the case of `COc1cc(/C=C/S(=O)(=O)Cc2cc(OC)c(OC)c(OC)c2)ccc1OC(=O)N(c1ccccc1)c1ccccc1` [Compound K3-3, (E)-2-methoxy-4-{2-[(3,4,5-trimethoxyphenyl)mesyl]ethenyl}-phenyl-N,N-diphenylcarbamate], the “Expression (Immunofluorescence intensity %)” value in assay [1] is 180.11 ± 13.51%; in assay [5], 98.53 ± 3.08%. In addition, the “Positive cell number” value in assay [2] stood at 96 ± 3. Also, the “Expression (GCLC/GAPDH)” value in assay [3] came to 0.86 ± 0.04. In assay [4], the “Expression (CD11b/GAPDH)” value came out at 1.15 ± 0.07. In addition, the “Expression (TH/GAPDH)” value in assay [6] is 1.15 ± 0.05.

Turning to `O=C(NC(=O)C(F)(F)F)Oc1ccc(/C=C/S(=O)(=O)C(F)(F)c2ccc(Oc3ccccn3)cc2)cc1OC(=O)C(F)(F)C(F)(F)F` [Compound L1-4, (E)-5-{2-[(4-[pyridin-2-yl-oxy]phenyl)difluoromethylsulfonyl]ethenyl}-2-[N-(2,2,2-trifluoroacetyl)carbamoyloxy]phenyl-2,2,3,3,3-pentafluoropropionate], the “Expression (Immunofluorescence intensity %)” value in assay [1] is on record as 58.37 ± 6.11%; in assay [5] it was 83.22 ± 5.98%. Besides, the “Positive cell number” value in assay [2] was found to be 98 ± 4. In assay [3], the “Expression (GCLC/GAPDH)” value was found to be 0.96 ± 0.10. Moreover, the “Expression (CD11b/GAPDH)” value in assay [4] is 1.09 ± 0.09. In assay [6], the “Expression (TH/GAPDH)” value is 0.79 ± 0.04.

Take `CCN(C)C(=O)Oc1ccc(/C=C/S(=O)(=O)CC(c2ccc(-c3ccc(OC)c(OC)c3)cc2)[N+](=O)[O-])cc1OC(=O)N(C)CC` (stereo not drawn) [Compound M1-1, (E)-4-{2-[2-(3′,4′-dimethoxy-[1,1′-biphenyl]-4-yl)-2-nitroethylsulfonyl]ethenyl}-1,2-phenylenebis(N-ethyl-N-methylcarbamate)]: the entries for the “Expression (Immunofluorescence intensity %)” value in assay [1] and in assay [5] were 95.64 ± 9.25% and 101.36 ± 5.21%, respectively. Also, in assay [2], the “Positive cell number” value is given as 59 ± 3. In addition, in assay [3], the “Expression (GCLC/GAPDH)” value amounted to 1.30 ± 0.09. Besides, the “Expression (CD11b/GAPDH)” value in assay [4] is given as 0.46 ± 0.04. Further, the “Expression (TH/GAPDH)” value in assay [6] came to 1.35 ± 0.04.

For the compound `CN(C)c1ccc(CC(=O)Oc2cc(/C=C/S(=O)(=O)C(Br)c3ccc(Cc4ccc(N(C)C)cc4)cc3)ccc2OC(=O)N2CCCC2C(F)(F)F)cc1` (stereo not drawn) [Compound M1-5], the “Expression (Immunofluorescence intensity %)” value is reported as 67.90 ± 3.29% in assay [1] and 87.24 ± 2.97% in assay [5]. Moreover, in assay [2], the “Positive cell number” value is 81 ± 4. Besides, the “Expression (GCLC/GAPDH)” value in assay [3] was found to be 1.35 ± 0.08. In addition, in assay [4], the “Expression (CD11b/GAPDH)” value came to 0.83 ± 0.07. For the same compound, in assay [6], the “Expression (TH/GAPDH)” value is on record as 0.83 ± 0.06.

As for `Cc1ccc(N2CCN(C(=O)Oc3ccc(/C=C/S(=O)(=O)CCCC(c4ccc(OC(=O)CN(C)C)cc4)N(C)C)cc3OC(=O)N(C)c3ccccc3)CC2)cc1` (stereo not drawn) [Compound P1-1, (E)-4-{2-[4-(dimethylamino)-4-(4-(N,N-dimethylglycyloxy)phenyl)butylsulfonyl]ethenyl}-2-(N-methyl-N-phenylcarbamoyloxy)phenyl-4-(p-methylphenyl)piperazine-1-carboxylate], the “Expression (Immunofluorescence intensity %)” value in assay [1] was 182.99 ± 12.70%; in assay [5], 88.13 ± 3.43%. For the same compound, in assay [2], the “Positive cell number” value is reported as 73 ± 6. Besides, in assay [3], the “Expression (GCLC/GAPDH)” value is 0.98 ± 0.06. The “Expression (CD11b/GAPDH)” value in assay [4] is recorded as 0.70 ± 0.06. Also, in assay [6], the “Expression (TH/GAPDH)” value is given as 0.88 ± 0.04.

As for `COc1ccc(CC(=O)Oc2ccc(C(N)CS(=O)(=O)/C=C/c3ccc(OC(C)(C)C)c(OC(=O)N(C)c4ccccc4)c3)cc2)cc1` (stereo not drawn) [Compound P1-3, (E)-4-{1-amino-2-[4-t-butoxy-3-(N-methyl-N-phenylcarbamoyloxy)styrylsulfonyl]ethyl}phenyl-2-(4-methoxyphenyl)acetate], the “Expression (Immunofluorescence intensity %)” value is 48.33 ± 5.37% in assay [1] and 79.20 ± 6.53% in assay [5]. Further, in assay [2], the “Positive cell number” value turned out to be 69 ± 5. Further, in assay [3], the “Expression (GCLC/GAPDH)” value stood at 0.91 ± 0.11. Also, in assay [4], the “Expression (CD11b/GAPDH)” value was 1.09 ± 0.08. Further, in assay [6], the “Expression (TH/GAPDH)” value was found to be 0.77 ± 0.03.

For `COc1ccc(CC(=O)Oc2ccc(/C(C)=C/S(=O)(=O)/C=C/c3ccc(OC(=O)N(C)C)c(O[Si](C)(C)CCl)c3)cc2)cc1` [Compound P1-7, 4-{(E)-1-[(E)-3-(chloromethyldimethylsiloxy)-4-(N,N-dimethylcarbamoyloxy)styrylsulfonyl]prop-1-en-2-yl}phenyl-2-(4-methoxyphenyl) acetate], the figures for the “Expression (Immunofluorescence intensity %)” value in assay [1] and in assay [5] were 61.28 ± 5.36% and 88.07 ± 5.03%, respectively. For the same compound, the “Positive cell number” value in assay [2] is 73 ± 5. Moreover, the “Expression (GCLC/GAPDH)” value in assay [3] amounted to 0.87 ± 0.08. For the same compound, the “Expression (CD11b/GAPDH)” value in assay [4] came to 0.39 ± 0.03. For the same compound, the “Expression (TH/GAPDH)” value in assay [6] is listed as 0.88 ± 0.06.
